# Experimental data reported in US9480695B2, “Methods for inducing orexin neurons and agent for treating narcolepsy or eating disorder” (THE UNIVERSITY OF TOKYO, priority 2011, dated 2016).
# Experiments:
# Assay type in all cases: cell-based
# [1] = tested on: human iPS cell strain 201B7; assay: Hcrt expression with ManNAc plus Sirt inhibitor and Ogt inhibitor, neural differentiation from human iPS cell, RT-PCR; settings: ManNAc 1.0 mM from 0th day, EX-527 50 nM and/or BADGP 5 mM on 14th day, collected 20th day; FIG. 10
# Protocol: A human iPS cell strain 201B7 (HSP0001) was obtained from Riken BioResource Center via National BioResource Project (MEXT, Japan). The human iPS cell was maintained on a feeder layer of a mitomycin C-treated STO/Neo resistant/LIF (SNL) feeder cell in a primate ES medium (ReproCELL) complemented with 5 ng/mL recombinant human bFGF (Wako). The human iPS cell was co-cultured with PA6 for 20 days, for differentiation induction into a nerve with a SIDA and BMP4 system. From 7th day, 5 nM BMP4 was complemented. A detailed protocol of differentiation induction into a nerve cell is shown in the lower column of FIG. 11. From the initiation of differentiation culturing (0th day), ManNAc was added to a neural differentiation medium so that the concentration became 1.0 mM, and on 7th, 10th and 14th days of differentiation culturing, the medium was exchanged. In addition, from 7th day of differentiation culturing, 5 nM recombinant human BMP4 (Wako) was added. On 14th day of differentiation culturing, EX-527 (SIGMA-ALDRICH) was added to a neural differentiation medium so that the concentration became 50 nM, or BADGP (SIGMA-ALDRICH) was added to a neural differentiation medium so that the concentration became 5 mM, and on 20th day of differentiation culturing, cells were collected and subjected to RT-PCR. The conditions of RT-PCR are the same as those of Example 1.
# [2] = tested on: human-derived pluripotent stem cell; assay: Hcrt expression in human-derived pluripotent stem cell (similar effect to Experiment 1); settings: stated as similar to Experiment 1
# [3] = tested on: human iPS cell strain 201B7; assay: Orexin-positive cells in neurally differentiated colony induced from human iPS cell, immunostaining; settings: differentiation as in Example 5; anti-human orexin antibody fluorescence
# Protocol: Cells which had been differentiation-induced on a 4-well culture plate by the method described in Example 5 were fixed with a 4% paraformalin solution, and cellular membrane permeability treatment was performed with a 0.2% Triton-X100 solution. The cells were treated with a 5% bovine serum albumin solution, followed by treatment with a primary antibody (anti-human orexin antibody, anti-human tubulin III antibody) at 4° C. overnight. After a reaction with a secondary labeled antibody (Alex-Fluor 488-labeled donkey anti-goat antibody, Alexa-Fluor 594-labeled rabbit anti-mouse antibody), a nuclear DNA was stained with DAPI.
# [4] = tested on: Mouse ES cells (J1 strain); assay: Induction of Hcrt expression in neural differentiation from mouse ES cells, SDIA differentiation culture system, RT-PCR
# Protocol: Mouse ES cells (J1 strain) which had been maintained in a medium for an ES cell [DMEM (Wako) added with 15% FBS (Biowest), 1 mM sodium pyruvate (Invitrogen), […] (Invitrogen), 2 mM L-glutamine (Invitrogen), 1 mM non essential amino acid (Invitrogen), 50 U/ml penicillin/50 μg/ml streptomycin (Invitrogen), 2000 U leukemia inhibitory factor (Chemicon, CA)] were seeded on a 10 cm culture dish so that the cell count became 1×10^5 cells per culture dish on which PA6 stromal cells had been seeded in advance, and differentiation induction was performed in a medium for neural differentiation [Glasgow MEM (Invitrogen) added with 10% KSR (Invitrogen), […] (Invitrogen), 1 mM non essential amino acid (Invitrogen), 50 U/ml penicillin/50 μg/ml streptomycin (Invitrogen)] for 10 days. On 4th and 7th days of differentiation culturing, the medium was exchanged. In addition, from 4th day of differentiation culturing, 5 nM recombinant human BMP4 (Wako) was added (FIG. 1). On 10th day of differentiation culturing, cells were collected and pelletized by a centrifugation operation to remove the culture medium. Thereafter, the pellets were immediately frozen in liquid nitrogen and stored at −80° C. until use.
# The total RNA was extracted from the collected cells using RNeasy plus Mini Kit (QIAGEN). Then, a reverse transcription reaction was performed in a reaction liquid containing 1 μg of the total RNA, and Oligo (dT) using SuperScript III First Strand Synthesis System (Invitrogen) to synthesize a cDNA.
# A PCR reaction was performed on a 10 μl scale, 1 U of LA-Taq DNA Polymerase (Takara) was added to 0.5 μl of a cDNA, 5 μl of 2×GC Buffer I, each 200 μM of dNTP, 1.5 mM MgCl2, and each primer having a final concentration of 0.2 μM, thermal denaturation was performed at 95° C. for 3 minutes, and the reaction was performed under the condition of (30 seconds at 95° C., 30 seconds at 55° C., and 30 seconds at 72° C.)×35 cycles (20 cycles in the case of Actb). The primers used are shown below.
# Each PCR product was electrophoresed on a 2% agarose gel, stained with ethidium bromide, and a band was observed by UV irradiation.
# [5] = tested on: Mouse ES cells (J1 strain); assay: Hcrt expression with ManNAc plus Sirt inhibitor or Ogt inhibitor, neural differentiation from mouse ES cell, RT-PCR; settings: ManNAc 1.0 mM from 0th day, BADGP 1 mM or 5 mM on 7th day, collected 10th day; FIG. 9
# Protocol: According to the same manner as that described in Example 1, mouse ES cells (J1 strain) were cultured for 10 days for differentiation induction into a nerve cell. A protocol of inducing differentiation into a nerve cell is shown in the upper column of FIG. 11. From the initiation of differentiation culturing (0th day), ManNAc was added to a neural differentiation medium so that the concentration became 1.0 mM, and the medium was exchanged on 4th and 7th days of differentiation culturing. In addition, from 4th day of differentiation culturing, 5 nM recombinant human BMP4 (Wako) was added. On 7th day of differentiation culturing, EX-527 (SIGMA-ALDRICH) was added to a neural differentiation medium so that the concentration became 50 nM or BADGP (SIGMA-ALDRICH) was added to a neural differentiation medium so that the concentration became 1 or 5 mM, and on 10th day of differentiation culturing, cells were collected and subjected to RT-PCR. The conditions of RT-PCR are the same as those of Example 1.
smiles,measurement,setting,value
"CC(=O)N[C@@H]1C(O)O[C@H](CO)[C@@H](O)[C@@H]1O (stereo partly drawn) [ManNAc, N-acetyl-D-mannosamine]",Expression of an orexin gene (Hcrt),[1],recognized in a ManNAc-added section and an EX-527-added section to the same extent
same,Expression of Hcrt in a human-derived pluripotent stem cell,[2],a similar effect was obtained
same,ratio of orexin-positive cells in a neurally differentiated colony,[3],4.9%
same,Level of Hcrt expression by addition period,"[4]; 1.0 mM ManNAc, added on 4th to 10th, 7th to 10th and 0th to 10th days versus 0th to 4th and 0th to 7th days",high expression was observed in the section in which ManNAc was added to a medium on and after 7th day of differentiation
same,Expression of Hcrt with changed time of addition,"[4]; 1.0 mM, addition time varied, FIG. 3",expression of Hcrt was observed only in a ManNAc-added section at any addition time
same,Expression of an orexin gene (Hcrt),"[4]; added from initiation of differentiation culturing at 0.2 and 1.0 mM, cells collected on 10th day, FIG. 2",expression of Hcrt was recognized only in a ManNAc-added section
same,Expression of an orexin gene (Hcrt),[5],expression of Hcrt which had been recognized in a ManNAc-added section
